These results are taken from patent EP4111863A1, “PHOSPHORUS USE EFFICIENCY ENHANCERS AS PLANT GROWTH PROMOTORS” (EuroChem Antwerpen, priority 2021, dated 2023).

The experiment deals with SPX1. Put plainly: Chemical activity assessment: SPX1 phosphate starvation biomarker, pSPX1::GUS reporter line, GUS stained area. Type of experiment: in vivo, Arabidopsis thaliana. As to conditions: Table 3; 50 µM compound, low phosphate modMS liquid medium, 7 days after germination; low phosphate control average of the same plate. The procedure: All Arabidopsis plant experiments were performed using the Arabidopsis thaliana Columbia-0 background. The Arabidopsis pSPX1::GUS line is described in the […] 2008, 54: 965-975. For rice, the cultivar Nipponbare was used. For maize, the cultivars DKC 2931 and B104 were used for regular pot experiments and sand-based pot experiments, respectively. For soybean, the cultivar Primus was used. […] The medium was solidified due to the addition of 0,6% Gelrite, unless stated otherwise. In case of vertical plates (root length and root hair measurements), the medium was supplied with 0.5% of sucrose and 1 µM (low phosphate, 1 µM KH2PO4, 9.9 mM KCI), 10 µM (low phosphate 10 µM KH2PO4, 9.9 mM KCI) or 1.25 mM KH2PO4 (high phosphate). Arabidopsis seeds were stratified for 2 days at 4 °C before germination. Seedlings were germinated in climate-controlled growth chambers at 22 °C under continuous light (100 µmol m^-2 s^-1). Husked rice seeds were germinated on wetted Whatman paper for 2 days at 37 °C and then transferred to Sterivent boxes or square Petri dishes with solid medium. Maize and soybean seeds were wetted 24 hours at room temperature prior to sowing in pots.
For the chemical activity assessment 3 to 8 seeds per well of Arabidopsis pSPX1::GUS line were sown in 96-well plates containing 150 µl of low phosphate modMS liquid medium containing 1% of sucrose. Compounds were added in 50 µM concentration, starting from a 5 mM stock of compounds solved in DMSO. Different chemical substances were separately added to different wells. Per plate, 16 control wells were used, 8 containing only the low phosphate medium and 1% DMSO, and 8 containing high phosphate medium and 1% DMSO. 7 days after germination, plates were scanned using a flatbed scanner (EPSON Expression 11000XL) and analyzed for leaf size. After scanning, the growth medium was replaced by GUS staining solution (see Plant Mol. Biol. Rep. 1994, 12: 37-42 for details) and incubated for 1.5 hours at 37 °C. The plates were scanned a second time and analyzed for GUS signal area. Measurements of both leaf area and GUS signal area were conducted by filtering out and measure the green and blue signal, respectively using ImageJ software. If the green leaf area was 50% or less than the control, samples were omitted. Additionally, all results were visually screened for leaf size and GUS signal.

For `CCN(CC)S(=O)(=O)c1ccc(N2CCOCC2)c(NC(=O)c2ccccc2OC)c1`, the “GUS (SPX1) stained area normalized to the number of seeds (pixels)” value (“GUS (SPX1) stained area normalized” for short) is on record as 7 pixels. As for `CC(C)C(NC(=O)C12CC3CC(CC(C3)C1)C2)C(=O)N1CCOCC1` (stereo not drawn), the “GUS (SPX1) stained area normalized” value is reported as 14 pixels. Regarding `CCc1nnsc1C(=O)NCc1ccccc1N1CCOCC1`, the “GUS (SPX1) stained area normalized” value turned out to be 13 pixels. The value for `CC(C)Cn1c(SCC(=O)c2ccc(Br)s2)nnc1N1CCOCC1` was 9 pixels; that for `CC1CN(CC(=O)Nc2ccccc2Cc2ccccc2)CC(C)O1` (stereo not drawn) was 0 pixels; that for `O=C1NC(c2cc3ccccc3nc2N2CCOCC2)Nc2ccccc21` (stereo not drawn) was 14 pixels. For the compound `CC(=O)Nc1nc(CN2CC(C)OC(c3ccsc3)C2)cs1` (stereo not drawn), the “GUS (SPX1) stained area normalized” value came out at 20 pixels. Regarding `Fc1ccc(-c2nnc(SCc3ccc4ccccc4n3)n2CCN2CCOCC2)cc1`, the “GUS (SPX1) stained area normalized” value is listed as 22 pixels. In the case of `O=C(COc1cccc(F)c1)Nc1sc2c(c1C(=O)N1CCOCC1)CCCC2`, the “GUS (SPX1) stained area normalized” value came to 10 pixels. The value for `Cc1ccc(C(C)C)c(OCCNCCN2CCOCC2)c1` was 40 pixels; that for `Cc1cnc(CN2CCOC(c3nc(C(C)C)n[nH]3)C2)o1` (stereo not drawn) was 7 pixels.

In the case of `O=S(=O)(c1ccc(Sc2nnc(-c3ccccc3)c3ccccc23)nc1)N1CCOCC1`, the “GUS (SPX1) stained area normalized” value was found to be 31 pixels.

In the case of `Cc1nc2c(cc(Oc3ccc(S(=O)(=O)N4CCOCC4)cn3)c3ccsc32)s1`, the “GUS (SPX1) stained area normalized” value came out at 26 pixels.

With `CS(=O)(=O)CC1(CN2CCOC(c3ccc(F)cc3)C2)CC1` (stereo not drawn), the “GUS (SPX1) stained area normalized” value was determined as 0 pixels. Consider `Cc1nc(C(C)(C)NCC(=O)N2CC(C)OC(C)C2)sc1C` (stereo not drawn), for which the “GUS (SPX1) stained area normalized” value was 34 pixels. As for `O=C(Nc1ccc(F)cn1)N1CCOC(c2nccs2)C1` (stereo not drawn), the “GUS (SPX1) stained area normalized” value stood at 24 pixels.

`O=C(NC1CCSc2ccc(Cl)cc21)c1ccc(N2CCOCC2)c([N+](=O)[O-])c1` (stereo not drawn): the “GUS (SPX1) stained area normalized” value is reported as 27 pixels. Take `O=C1C(=O)N(C2CCCC2)C(=O)N1Cc1cccc(S(=O)(=O)N2CCOCC2)c1`: the “GUS (SPX1) stained area normalized” value was found to be 9 pixels.

As to `CC1(C)COCCN1C(=O)c1cnc(-c2cccs2)s1`, the “GUS (SPX1) stained area normalized” value came to 45 pixels. Take `O=C1Nc2ccccc2SC1Nc1ccc(F)c(S(=O)(=O)N2CCOCC2)c1` (stereo not drawn): the “GUS (SPX1) stained area normalized” value is listed as 3 pixels. Consider `CC1CN(C(=O)c2cc(Cl)c(Cl)n2C)CCO1` (stereo not drawn), for which the “GUS (SPX1) stained area normalized” value worked out at 14 pixels.

`CCC(CC)C(C(=O)NCc1cccc(C)c1)N1CCOCC1` (stereo not drawn): the “GUS (SPX1) stained area normalized” value is 11 pixels.

Regarding `CC1CN(C(=O)Cn2nc(-c3cccs3)oc2=O)CCO1` (stereo not drawn), the “GUS (SPX1) stained area normalized” value was 0 pixels. With `Cc1cccn2c(=O)cc(CN3CCOC(c4ccc(F)cc4)C3)nc12` (stereo not drawn), the “GUS (SPX1) stained area normalized” value came to 19 pixels.

On to `CCCCS(=O)(=O)N1CCOCC1c1noc(C(C)C)n1` (stereo not drawn), for which the “GUS (SPX1) stained area normalized” value is on record as 73 pixels. `CN(CC1COc2ccccc2O1)c1ccc(S(=O)(=O)N2CCOCC2)cn1` (stereo not drawn): the “GUS (SPX1) stained area normalized” value stood at 0 pixels. Regarding `CC(C)(C)c1n[nH]c(C2CN(C(=O)c3ccc[nH]3)CCO2)n1` (stereo not drawn), the “GUS (SPX1) stained area normalized” value worked out at 5 pixels. As for `Cn1cccc1C1COCCN1CCOCC1CC1` (stereo not drawn), the “GUS (SPX1) stained area normalized” value stood at 6 pixels. As to `O=C(NCC(c1ccc(F)cc1)N1CCOCC1)C12CC3CC(CC(C3)C1)C2` (stereo not drawn), the “GUS (SPX1) stained area normalized” value is recorded as 1 pixels.

Regarding `Brc1cc(CN2CCOC(Cn3cccn3)C2)cs1` (stereo not drawn), the “GUS (SPX1) stained area normalized” value is 21 pixels. Turning to `CC1CN(C(C)(C)CNC(=O)C2CCCN2C2CCN(CC(F)(F)F)CC2)CC(C)O1` (stereo not drawn), the “GUS (SPX1) stained area normalized” value was determined as 7 pixels. As for `CC1CN(CC(=O)Nc2ccccc2C(=O)NC2CCCC2)CC(C)O1` (stereo not drawn), the “GUS (SPX1) stained area normalized” value is reported as 21 pixels. Consider `CC1CN(C(=O)c2c(Cl)nc3ccccn23)C(C)CO1` (stereo not drawn), for which the “GUS (SPX1) stained area normalized” value worked out at 4 pixels. Take `Cc1csc(C2CN(Cc3nc(-c4ccccc4)no3)CCO2)n1` (stereo not drawn): the “GUS (SPX1) stained area normalized” value came out at 0 pixels.

As to `CC1CN(Cc2nc(-c3ccc(Br)s3)no2)CCO1` (stereo not drawn), the “GUS (SPX1) stained area normalized” value turned out to be 1 pixels. With `COc1ccc(OC)c2c1CN(c1nc(CN3CCOCC3)nc3sc(C)c(C)c13)CC2O` (stereo not drawn), the “GUS (SPX1) stained area normalized” value came to 42 pixels.

For the compound `O=C(c1ccc(-c2cc(Cl)ccc2Cl)o1)N1CCOCC1`, the “GUS (SPX1) stained area normalized” value was 16 pixels.

For the compound `O=C(Nc1sc2c(c1C(=O)N1CCOCC1)CCCC2)C1CCCc2ccccc21` (stereo not drawn), the “GUS (SPX1) stained area normalized” value is listed as 8 pixels.

Take `O=C(CSc1ncnc2sccc12)c1ccc(CC(=O)N2CCOCC2)s1`: the “GUS (SPX1) stained area normalized” value was 15 pixels. Turning to `O=C(CCc1ccccc1)Nc1c(C(=O)N2CCOCC2)oc2ccccc12`, the “GUS (SPX1) stained area normalized” value amounted to 28 pixels.

In the case of `Fc1ccc(C2CN(Cc3nnsc3Cl)CCO2)cc1` (stereo not drawn), the “GUS (SPX1) stained area normalized” value was 3 pixels.

`COc1cccc(C(c2c(-c3ccccc3)n(O)c3ccccc23)N2CCOCC2)c1` (stereo not drawn): the “GUS (SPX1) stained area normalized” value amounted to 54 pixels.

For `CCC1CN(Cc2cc(=O)n3cc(Cl)ccc3n2)CCO1` (stereo not drawn), the “GUS (SPX1) stained area normalized” value amounted to 47 pixels.

`Brc1ccc(CN2CCOC(Cn3cccn3)C2)s1` (stereo not drawn): the “GUS (SPX1) stained area normalized” value came to 10 pixels. `COC(=O)C1CN(Cc2sccc2Br)C[C@@H](C)O1` (stereo partly drawn): the “GUS (SPX1) stained area normalized” value was found to be 13 pixels. Regarding `O=C(COc1ccc(Cl)cc1)Nc1ccccc1C(=O)N1CCOCC1`, the “GUS (SPX1) stained area normalized” value is 20 pixels. Consider `c1cc2c(cc1Sc1nc(CN3CCOCC3)nc3sc4c(c13)CCC4)OCCO2`, for which the “GUS (SPX1) stained area normalized” value amounted to 6 pixels. Take `O=C(Cn1c(NCCO)nc2ccccc21)N1CCOCC1`: the “GUS (SPX1) stained area normalized” value stood at 16 pixels. The result for `CCCc1csc(NC(=O)N2CCOC3(CCC3)C2)n1` reads 49 pixels; that for `Cn1cc(C2CN(Cc3ccc(CSC(F)F)o3)CCO2)cn1` (stereo not drawn), 15 pixels; that for `CC(Nc1cnn(CCN2CCOCC2)c1)c1nccs1` (stereo not drawn), 25 pixels. The result for `O=C(Nc1cccc(NC(=O)N2CCOC3(CCC3)C2)c1)C1CC1` reads 11 pixels.

Regarding `C#CCNC(=O)CN1CCOC(CC)C1` (stereo not drawn), the “GUS (SPX1) stained area normalized” value was 66 pixels.

`CC(C)(C)CC(C)(C)NCc1cnc(N2CCOCC2)nc1`: the “GUS (SPX1) stained area normalized” value is listed as 5 pixels. With `CCC(=O)c1ccc(OC(=O)N2CCOCC2)cc1`, the “GUS (SPX1) stained area normalized” value worked out at 0 pixels. In the case of `Cc1ccc(S(=O)(=O)N2CCN(S(=O)(=O)N3CCOCC3)CC2)cc1`, the “GUS (SPX1) stained area normalized” value came out at 10 pixels. As to `Cc1cnc(CN2CCOC(c3ccc(C(F)(F)F)cc3)C2)o1` (stereo not drawn), the “GUS (SPX1) stained area normalized” value worked out at 46 pixels. Regarding `Cc1cnc(CN2CCOCC23CCCC3)o1`, the “GUS (SPX1) stained area normalized” value came out at 46 pixels.

On to `NC(=O)C1CN(C(=O)C2(c3cccc(C(F)(F)F)c3)CC2)CCO1` (stereo not drawn), for which the “GUS (SPX1) stained area normalized” value is 349 pixels. The result for `CC1CN(C(=O)c2csc(-c3ccsc3)n2)C(C)CO1` (stereo not drawn) reads 46 pixels; that for `O=C1CCCCCN1CCCNC(=O)N1CCOC2(CCCCCC2)C1`, 40 pixels; that for `CC(C)c1nc(C2COCCN2c2ccnc(-c3ccccc3)n2)no1` (stereo not drawn), 21 pixels.

In the case of `c1cc2c(cc1C1CCCN1c1nc(CN3CCOCC3)nc3sc4c(c13)CCC4)OCCO2` (stereo not drawn), the “GUS (SPX1) stained area normalized” value is 1 pixels. For the compound `COc1cccc(-c2nnn(-c3nc(CN4CCOCC4)nc4sc5c(c34)CCCC5)n2)c1`, the “GUS (SPX1) stained area normalized” value is 20 pixels. On to `CCc1cc2c(=O)n(CC(=O)N3CCOC(C)C3)cnc2s1` (stereo not drawn), for which the “GUS (SPX1) stained area normalized” value is reported as 0 pixels. Turning to `CC(c1nc(C(C)(C)C)no1)N1CCOC(c2ccccc2)C1` (stereo not drawn), the “GUS (SPX1) stained area normalized” value is recorded as 9 pixels.
